# Data as given in patent US9688653B2, “Ethoxyphenyl thienyl compounds and methods for the treatment of bacterial infections” (Duke University, priority 2013, dated 2017).
# “And” between values parts separate entries of the source, which are not always exact repeats. Equal entries are not always repeated. Where two headings read alike, the source gives them in different places.
# How the values were obtained:
# UPEC = test: Bacterial growth and viability without phage; format: cell-based, Escherichia coli
# Procedure: Assay Set-up: This secondary assay was conducted in the 96 well plate format. […] Compounds were added to plates in a concentration dependent manner in the range of 100-0.39 μM, followed by addition of 100 μL of bacterial culture. Each concentration was tested in quadruplicate. 1% DMSO (final well concentration) was included. The plates were tape sealed and shaken vigorously for 1.5 hr. An initial OD600 reading at the time of infection was measured to identify compounds that cause growth retardation or bacterial killing in the absence of phage. Next, K1F phage (5 μL) was added to all of the test wells. The plates were resealed and shaken vigorously at 37° C., and measurements of OD600 for phage-mediated lysis were taken after 3 hr.
# Assay Description: T7 phage-mediated lysis assay: This assay determined if the mechanism of action of the compound is inhibition of phage infectivity or replication. The T7 phage has a nearly identical genome to K1F, without encoding an endosialidase. Its cycle of replication is similar to that of K1F as well. However, T7 entry into E. coli is inhibited by K capsules. This secondary assay was conducted in the 96 well plate format. […] An initial OD600 reading was measured to identify compounds that cause growth retardation or bacterial killing in the absence of phage. […]
# [1] = Solubility in PBS and in assay media; format: physicochemical
# Procedure: Solubility was measured in phosphate buffered saline (PBS) at room temperature (23° C.). PBS by definition is 137 mM NaCl, 2.7 mM KCl, 10 mM sodium phosphate dibasic, 2 mM potassium phosphate monobasic and a pH of 7.4 (34). […] Solubility was also assessed in primary assay media (Luria-Bertani Broth). […] The solubility in PBS buffer is good, and only slightly less than in assay media, and, in any case, the solubility for the probe is well above its activity in the K1 and T7 assays.
# [2] = test system: Bladder carcinoma 5637 cells; test: Cytotoxicity counterscreen, CellTiter Glo, 72 hr; format: cell-based, human; conditions: bladder carcinoma 5637 cells
# How it was run: (§1)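 5637 bladder carcinoma cells were exposed to a 10-point compound series (300-0.58 μM, 0.5% DMSO) for 72 h. Viability was measured by CellTiter-Glo luminescence, and TC50 (CC50) was derived, with Hyamine as cytotoxic control.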
# [3] = Cytotoxicity counterscreen, CellTiter Glo, 72 hr; format: cell-based, human; conditions: human, bladder carcinoma 5637 cells (ATCC HTB-9); for CC50 at 72 h: read-out: Mammalian cell toxicity CC50
# How it was run: as §1
smiles,measurement,setting,value
"CCOc1ccc(-c2cc(NC(=O)c3c(F)cccc3F)c(C(=O)O)s2)cc1 [ML317, 3-(2,6-difluorobenzamido)-5-(4-ethoxyphenyl)thiophene-2-carboxylic acid]",Effect on in vitro growth and viability of UPEC,UPEC; absence of immune factors,no effect
same,Effect on bacterial cell viability,UPEC; highest tested concentration (100 μM),no effect
same,solubility,"[1]; Luria-Bertani broth (primary assay media), plasma or biological fluid, Luria-Bertani broth, read-out: Assay Media Solubility",68 µg/mL and 169 µM
same,solubility,"[1]; phosphate buffered saline (PBS), 23 °C, pH 7.4, aqueous buffer, 1x PBS, pH 7.4, room temperature, read-out: Aqueous Solubility",92.6 µg/mL and 230 µM
same,Cytotoxicity CC50 / TC50 / IC50,[2],47.2 ± 7.2 µM and 51.6 µM
same,Cytotoxicity CC50 / TC50 / IC50,[2]; listed as CID 23602075,47.2 ± 7.2 µM
same,CC50 at 72 h,"[3]; commercial sample, SID 103147605",47.2 ± 7.2 µM
same,IC50 at 72 h,"[3]; first round of synthetic analogues, n = 3",51.6 µM
same,IC50 at 72 h,"[3]; purchased analogue series, n = 2",47.2 µM
same,CC50 at 72 h,"[3]; synthesized sample, SID 126497311",51.6 ± 13.7 µM
